Literature values in patent publication US6444681B1, “Methods and compositions for treating Raynaud's Phenomenon and scleroderma” (The Ohio State University Research Foundation, priority 2000, dated 2002).

Molecular target: T1, α-2C (Homo sapiens, UniProt P18825)
T1 sequence (P18825 1-462): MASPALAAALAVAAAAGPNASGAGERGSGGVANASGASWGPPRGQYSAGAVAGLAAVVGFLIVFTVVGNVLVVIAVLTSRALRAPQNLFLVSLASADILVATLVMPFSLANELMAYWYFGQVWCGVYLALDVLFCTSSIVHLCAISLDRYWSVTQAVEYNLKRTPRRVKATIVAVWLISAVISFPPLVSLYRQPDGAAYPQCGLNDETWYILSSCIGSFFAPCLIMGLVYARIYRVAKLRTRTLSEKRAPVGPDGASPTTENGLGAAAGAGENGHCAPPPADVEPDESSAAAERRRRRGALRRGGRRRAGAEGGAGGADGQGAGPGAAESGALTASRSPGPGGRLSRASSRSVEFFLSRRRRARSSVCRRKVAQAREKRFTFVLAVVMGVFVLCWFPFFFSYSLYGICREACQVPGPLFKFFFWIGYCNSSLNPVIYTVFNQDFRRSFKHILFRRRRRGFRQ
Conditions: cited from earlier work

CN1CCC2(CCN3CCc4c(oc5ccccc45)C3C2)N(C)C1=O (stereo not shown) [MK 912]
Kd: 0.045 nM
